Data reported in ChEMBL document CHEMBL1687706, “Inhibition of human immunodeficiency virus type 1 replication in human cells by Debio-025, a novel cyclophilin binding agent” (Antimicrob Agents Chemother, 2008).
Activity calls are given as the source filed them. No cut-off for these calls is given here.

How the values were obtained:
[1] = system: Human alphaherpesvirus 2; test: Antiviral activity against Herpes simplex virus 2 Lyons infected in human embryonic lung cells assessed as inhibition of viral replication; type: functional, organism-based; settings: Human alphaherpesvirus 2, Lyons
[2] = system: Yellow fever virus; test: Antiviral activity against Yellow fever virus 17D infected in african green monkey Vero cells assessed as inhibition of viral replication; type: functional, cell-based
[3] = system: Rattus norvegicus; test: Immunosuppressive activity in Sprague-Dawley rat […] model assessed as percent T-helper cells at 10 mg/kg, po administered once daily for 28 days by flow cytometry; type: functional
[4] = system: Human immunodeficiency virus 1; test: Antiviral activity against HIV1 subtype O BCF01 infected in human PBMC assessed as inhibition of viral replication by ELISA; type: functional, organism-based; settings: Human immunodeficiency virus 1, subtype O BCF01
[5] = system: Hepatitis B virus; test: Antiviral activity against HBV infected in human hepAD38 cells assessed as inhibition of viral replication; type: functional, organism-based
[6] = system: Human immunodeficiency virus 2; test: Antiviral activity against HIV-2 isolate CDC310319 infected in human PBMC assessed as inhibition of viral replication; type: functional, organism-based; settings: Human immunodeficiency virus 2, isolate CDC310319
[7] = system: Rattus norvegicus; test: Immunosuppressive activity in Sprague-Dawley rat KHL model assessed as percent cytotoxic T cells at 50 mg/kg, po administered once daily for 28 days by flow cytometry; type: functional, T-cell
[8] = system: Human immunodeficiency virus 1; test: Antiviral activity against HIV1 subtype A 92UG037 infected in human PBMC assessed as inhibition of viral replication by ELISA; type: functional, organism-based; settings: Human immunodeficiency virus 1, subtype A 92UG037
[9] = system: Bovine viral diarrhea virus 1; test: Antiviral activity against BVDV infected in […] cells assessed as inhibition of viral replication; type: functional, organism-based; settings: Bovine viral diarrhea virus isolates and strains
[10] = system: Human immunodeficiency virus 1; test: Antiviral activity against HIV-1 NL4-3 infected in human TZB cells assessed as inhibitory effect on the completion of viral double stranded DNA at 0.5 to 2.5 uM by RT-PCR; type: functional, organism-based
[11] = system: Human immunodeficiency virus 1; test: Antiviral activity against LPV, APV, ATV, IDV, NFV, RTV, SQV, AZT, ddI, 3TC, d4T-resistant HIV-1 MDR3761 infected in human PBMC assessed as inhibition of viral replication by ELISA; type: functional, organism-based; settings: Human immunodeficiency virus 1, MDR3761
[12] = system: Human immunodeficiency virus 1; test: Antiviral activity against HIV1 subtype B TEKI infected in human PBMC assessed as inhibition of viral replication by ELISA; type: functional, organism-based; settings: Human immunodeficiency virus 1, subtype B TEKI
[13] = Cytotoxicity against african green monkey Vero cells; type: cell-based; settings: chlorocebus sabaeus, read-out: TC50 (the source's name)
[14] = system: Feline coronavirus; test: Antiviral activity against Feline coronavirus infected in CRFK assessed as inhibition of viral replication; type: functional, organism-based; settings: Alphacoronavirus 1, CRFK
[15] = system: Rattus norvegicus; test: Immunosuppressive activity in Sprague-Dawley rat […] model assessed as percent T-helper cells at 25 mg/kg, po administered once daily for 28 days by flow cytometry; type: functional
[16] = system: Human immunodeficiency virus 1; test: Antiviral activity against HIV1 subtype B SF162 infected in human PBMC assessed as inhibition of viral replication by ELISA; type: functional; settings: Human immunodeficiency virus 1, SF162 ISOLATE
[17] = Cytotoxicity against human embryonic lung cells; type: cell-based; settings: read-out: TC50 (the source's name)
[18] = system: Human alphaherpesvirus 1; test: Antiviral activity against Herpes simplex virus 1 McIntyre infected in human embryonic lung cells assessed as inhibition of viral replication; type: functional, organism-based; settings: Human alphaherpesvirus 1, McIntyre
[19] = cells; settings: Mus musculus, PBMC
[20] = system: Influenza A virus; test: Antiviral activity against Influenza A virus H3N2 infected in MDCK cells assessed as inhibition of viral replication; type: functional, organism-based
[21] = system: Vaccinia virus; test: Antiviral activity against Vaccinia virus infected in human embryonic lung cells assessed as reduction in viral yield measured after 3 days; type: functional, organism-based; settings: Orthopoxvirus vaccinia, 72 h
[22] = system: Human immunodeficiency virus 1; test: Antiviral activity against HIV1 subtype B NL4-3 infected in human PBMC assessed as inhibition of viral replication by ELISA; type: functional, organism-based; settings: Human immunodeficiency virus 1, subtype B NL4-3
[23] = system: Human immunodeficiency virus 1; test: Antiviral activity against APV, ATV, LPV, IDV, NFV, RTV, SQV-resistant HIV-1 1064-52 infected in human PBMC assessed as inhibition of viral replication by ELISA; type: functional, organism-based; settings: Human immunodeficiency virus 1, 1064-52
[24] = Cytotoxicity against human Huh 5.2 cells; type: cell-based, Huh-5-2; settings: read-out: TC50 (the source's name)
[25] = system: Human immunodeficiency virus 1; test: Antiviral activity against HIV1 subtype B ROJO infected in human PBMC assessed as inhibition of viral replication by ELISA; type: functional, organism-based; settings: Human immunodeficiency virus 1, subtype B ROJO
[26] = system: Rattus norvegicus; test: Immunosuppressive activity in Sprague-Dawley rat KHL model assessed as percent cytotoxic T cells at 25 mg/kg, po administered once daily for 28 days by flow cytometry; type: functional, T-cell
[27] = system: Human immunodeficiency virus 1; test: Antiviral activity against HIV1 subtype EA CMU02 infected in human PBMC assessed as inhibition of viral replication by ELISA; type: functional, organism-based; settings: Human immunodeficiency virus 1, subtype EA CMU02
[28] = Antiviral activity against Simian immunodeficiency virus-mac 251 infected in human PBMC assessed as inhibition of viral replication by RT activity; type: functional
[29] = system: Human immunodeficiency virus 1; test: Antiviral activity against APV, ATV, IDV, LPV, NFV, RTV, SQV, 3TC, FTC, ABC, AZT, d4T, ddC, ddI, TDF, EFV, DLV, NVP-resistant HIV-1 MDR769 infected in human PBMC assessed as inhibition of viral replication by ELISA; type: functional, organism-based; settings: Human immunodeficiency virus 1, MDR769
[30] = system: Human respirovirus 3; test: Antiviral activity against Parainfluenza 3 infected in african green monkey Vero cells assessed as inhibition of viral replication; type: functional, organism-based; settings: Human respirovirus 3, Vero
[31] = system: Hepatitis C virus; test: Antiviral activity against HCV infected in human Huh 5.2 cells assessed as reduction in viral RNA level by luciferase reporter gene assay; type: functional, organism-based, Hepacivirus hominis; settings: Huh-5-2
[32] = system: Human alphaherpesvirus 1; test: Antiviral activity against Herpes simplex virus 1 F infected in human embryonic lung cells assessed as inhibition of viral replication; type: functional, organism-based; settings: Human alphaherpesvirus 1, strain F
[33] = system: Human immunodeficiency virus 1; test: Antiviral activity against HIV-1 NL4-3 infected in human TZB cells assessed as inhibition of viral entry at 0.5 to 2.5 uM after 2 hrs by RT-PCR; type: functional, organism-based
[34] = system: Human papillomavirus type 16; test: Antiviral activity against HPV-16 infected in Caski cells assessed as inhibition of viral replication after 7 days; type: functional, Human papillomavirus 16
[35] = system: Simian immunodeficiency virus; test: Antiviral activity against Simian immunodeficiency virus PBj infected in human PBMC assessed as inhibition of viral replication by RT activity; type: functional, organism-based
[36] = Cytotoxicity against MDCK cells; type: cell-based, Canis lupus familiaris; settings: dog, read-out: TC50 (the source's name)
[37] = system: Human immunodeficiency virus 1; test: Antiviral activity against HIV1 subtype B 92BR014 infected in human PBMC assessed as inhibition of viral replication by ELISA; type: functional, organism-based; settings: Human immunodeficiency virus 1, subtype B 92BR014
[38] = Antiviral activity against HPV-33 infected in CK1 cells assessed as inhibition of viral replication after 3 days; type: functional, cell-based, Human papillomavirus type 33; settings: human papillomavirus 33, CK1, 72 h; read-out: TC50 (the source's name)
[39] = system: MT4; test: Cytotoxicity against human MT4 cells at 0.83 uM by MTT assay; type: cell-based; settings: mt4, 0.83 µM

For C/C=C/C[C@@H](C)[C@@H](O)[C@H]1C(=O)N[C@@H](CC)C(=O)N(C)[C@H](C)C(=O)N(CC)[C@@H](C(C)C)C(=O)N[C@@H](C(C)C)C(=O)N(C)[C@@H](CC(C)C)C(=O)N[C@@H](C)C(=O)N[C@H](C)C(=O)N(C)[C@@H](CC(C)C)C(=O)N(C)[C@@H](CC(C)C)C(=O)N(C)[C@@H](C(C)C)C(=O)N1C [ALISPORIVIR], the IC50 [1] was > 25 µM, the IC50 [2] was > 16.6 µM and the Activity [3] was 29.8%. It also gave an IC50 [4] of 6.25 µM, an IC50 [5] of 4.1 µM and an IC50 [6] of 10.5 µM. For the same molecule, the Activity [7] was 16.1%, the IC50 [8] was 16 nM and the IC50 [9] was > 25 µM. For the same molecule, the inhibition [10] was “Active”, the IC50 [11] was 160 nM and the IC50 [12] was 4.41 µM. It also gave a CC50 [13] of 16.6 µM, an IC50 [14] of 2200 nM and an Activity [15] of 34.5%. The IC50 [16] was 15 nM, the CC50 [17] was 25 µM and the IC50 [18] was > 25 µM. For the same molecule, the IC50 [19] was 820 nM, the IC50 [20] was > 9.9 µM and the IC50 [21] was > 25 µM. The IC50 [22] was 10 nM, the IC50 [23] was 7 nM and the CC50 [24] was 22 µM. It also gave an IC50 [25] of 24 nM, an Activity [26] of 18% and an IC50 [27] of 5.66 µM. The IC50 [28] was 8.24 µM, the IC50 [29] was 12 nM and the IC50 [30] was > 25 µM. The IC50 [31] was 220 nM, the IC50 [32] was > 25 µM and the inhibition [33] was “inactive”. For the same molecule, the TC50 [34] was 0.6 µM, the IC50 [35] was 7.97 µM and the CC50 [36] was 9.9 µM. The IC50 [37] was 5.65 µM, the CC50 [38] was 400 nM and the Activity [39] was “Non-toxic”.
